SMILES strings stand for the structures.

Chain of mitochondrial RNA-polymerase (POLRMT) (Q8BKF1 42-1207): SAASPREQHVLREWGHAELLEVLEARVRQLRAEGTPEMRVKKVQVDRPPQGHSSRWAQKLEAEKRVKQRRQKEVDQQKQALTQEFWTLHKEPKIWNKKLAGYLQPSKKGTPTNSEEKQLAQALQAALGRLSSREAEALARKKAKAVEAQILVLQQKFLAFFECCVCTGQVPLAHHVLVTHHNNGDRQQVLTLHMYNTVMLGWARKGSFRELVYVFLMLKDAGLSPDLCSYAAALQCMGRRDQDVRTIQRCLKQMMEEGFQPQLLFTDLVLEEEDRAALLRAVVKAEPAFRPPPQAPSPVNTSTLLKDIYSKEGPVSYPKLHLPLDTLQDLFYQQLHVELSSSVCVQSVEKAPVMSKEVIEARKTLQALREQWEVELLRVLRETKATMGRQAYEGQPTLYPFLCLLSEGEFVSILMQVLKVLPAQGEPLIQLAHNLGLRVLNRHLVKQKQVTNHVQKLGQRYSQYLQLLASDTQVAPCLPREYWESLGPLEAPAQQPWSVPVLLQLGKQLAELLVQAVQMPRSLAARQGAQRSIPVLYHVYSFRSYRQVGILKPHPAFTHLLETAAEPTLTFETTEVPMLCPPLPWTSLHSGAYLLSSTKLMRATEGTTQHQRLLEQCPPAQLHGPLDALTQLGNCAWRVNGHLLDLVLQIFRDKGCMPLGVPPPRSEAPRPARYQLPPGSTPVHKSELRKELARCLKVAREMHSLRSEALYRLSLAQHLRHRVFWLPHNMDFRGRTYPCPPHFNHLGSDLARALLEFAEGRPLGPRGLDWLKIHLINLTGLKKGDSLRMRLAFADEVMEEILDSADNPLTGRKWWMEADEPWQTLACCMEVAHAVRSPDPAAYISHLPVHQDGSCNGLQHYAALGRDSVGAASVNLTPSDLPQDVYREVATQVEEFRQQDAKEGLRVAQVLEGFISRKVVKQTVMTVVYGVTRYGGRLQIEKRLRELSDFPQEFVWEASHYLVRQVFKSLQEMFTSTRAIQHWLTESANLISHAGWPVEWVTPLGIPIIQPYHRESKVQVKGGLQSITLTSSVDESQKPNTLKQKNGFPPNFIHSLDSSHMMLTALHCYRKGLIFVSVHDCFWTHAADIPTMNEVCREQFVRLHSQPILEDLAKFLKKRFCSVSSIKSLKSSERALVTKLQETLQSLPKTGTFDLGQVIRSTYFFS

For this test, the target named is mitochondrial RNA-polymerase (POLRMT) (Mus musculus, UniProt Q8BKF1). Nature of the test: Homogeneous TR-FRET assay for mitochondrial transcription activity. The format is biochemical. Particulars: homogeneous TR-FRET assay according to Example 4; activity class. The text has this:
The TR-FRET assay was basically conducted as described in WO2016/193,231A1, especially as described in example 1 (hereby incorporated by reference). With respect to the background of the mitochondrial transcription it is referred to Falkenberg et al. (2002) and Posse et al. (Posse et al., 2015). The method monitors the activity of mitochondrial RNA-polymerase via detection of the formation of its product, a 407 bp long RNA sequence. Detection of the product is facilitated by hybridization of two DNA-oligonucleotide probes to specific and adjacent sequences within the RNA product sequence. Upon annealing of the probes, two fluorophores that are coupled directly to an acceptor nucleotide probe (ATT0647, 5′) or introduced via a coupled streptavidin interacting with a biotinylated donor nucleotide probe on the other side (Europium cryptate, 3′) are brought into sufficient proximity to serve as a fluorescence-donor-acceptor pair as generally described in Walters and Namchuk (2003). Thus, a FRET signal at 665 nm is generated upon excitation at 340 nm.
Briefly, the protocol described here was applied for screening and activity determination in a low-volume 384-well microtiter plate with non-binding surface. For high-throughput application in the 1536-well microtiter plate format, volumes of the reagent mixes were adjusted, maintaining the volumetric ratio. Proteins POLRMT (NM_172551.3), TFAM (NM_009360.4) and TFB2 M (NM_008249.4) were diluted from their stocks to working concentrations of 150 nM, 1.8 μM and 330 nM respectively, in a dilution buffer containing 100 mM Tris-HCl pH 8.0, 200 mM NaCl, 10% (v/v) glycerole, 2 mM glutathione (GSH), 0.5 mM EDTA and 0.1 mg/mL BSA. Protein dilutions and template DNA, comprising a pUC18 plasmid encoding the mitochondrial light strand promoter, restriction linearized proximal to the promoter 3′-end (pUC-LSP), were mixed at the twofold final assay-concentration in a reaction buffer, containing 10 mM Tris-HCl pH 7.5, 10 mM MgCl2, 40 mM NaCl, 2 mM GSH, 0.01% (w/v) Tween-20 and 0.1 mg/mL BSA.
5 μL of this mix were dispensed, depending on the chosen microtiter plate format, using multi-channel pipettes or a Multidrop® dispenser (Thermo Fisher Scientific, Waltham Mass.) into the wells of a microtiter plate and incubated at room temperature (RT) for 10 min. Chemical compounds under scrutiny in the assay were applied using contact-free acoustic droplet-dispensing (Echo520® Labcyte Inc., Sunnyvale Calif.) from 10 mM compound stocks in 100% DMSO, to a final concentration of 10 μM or in serial dilution series of the required concentration range. Equal amounts of DMSO without any compound were added to positive control samples, followed by an incubation step at RT for 10 min.
The enzymatic reaction was started by the addition of 5 μL of a mix of […] in reaction buffer to a final concentration of 500 μM each. No nucleotide mix was added to negative control samples. The content of the wells was mixed using a VarioTeleshaker™ (Thermo Fisher Scientific, Waltham Mass.) at 1,500 rpm for 45 sec after which the microtiter plate was centrifuged at 500×g for 1 min. The samples were incubated for 2 h at RT with humidity control to avoid evaporation. The detection reagents were prepared in a buffer that was composed, such that the enzymatic reaction was terminated due to chelating of Mg-ions and increased ionic strength, containing 50 mM Tris-HCl pH 7.5, 700 mM NaCl, 20 mM EDTA, and 0.01% (w/v) Tween-20. Importantly Eu-cryptate-coupled streptavidin had to be pre-incubated with a 100-fold molar excess of a random sequence oligonucleotide for 10 min at RT in the dark to block unspecific binding of single stranded RNA to the protein. Subsequently, the blocked streptavidin(—Eu) was mixed with the DNA-probes on ice and kept away from light until use. […]
For orientation: Time-resolved FRET reads energy transfer from a long-lived donor to a nearby acceptor.
On to `COC(=O)C1CN(C(=O)[C@@H](C)Oc2ccc3c(-c4ccc(F)cc4Cl)cc(=O)oc3c2)CCN1C` (mixture of isomers) [Compound 137, methyl 1-methyl-4-[rac-(2R)-2-[4-(2-chloro-4-fluoro-phenyl)-2-oxo-chromen-7-yl]oxypropanoyl]piperazine-2-carboxylate], for which the IC50 (in general, the point on the concentration scale where inhibition reaches its midpoint) is 100 to 1000 nM.
In turn, `CC(Oc1ccc2c(-c3ccccc3Cl)cc(=O)oc2n1)C(=O)N1CCC[C@H](C(=O)OC(C)(C)C)C1` (mixture of isomers) [Compound 171, tert-butyl rac-(3S)-1-[2-[4-(2-chlorophenyl)-2-oxo-pyrano[2,3-b]pyridin-7-yl]oxypropanoyl]piperidine-3-carboxylate] registered an IC50 of 100 to 1000 nM.
The value for `Cc1ccccc1-c1cc(=O)oc2cc(OC(C)C(=O)N3CCC[C@H](C(=O)O)C3)ccc12` (stereo partly drawn) [Compound 3, (3S)-1-[2-[4-(o-tolyl)-2-oxo-chromen-7-yl]oxypropanoyl]piperidine-3-carboxylic acid] was under 20 nM; that for `Cc1ccccc1-c1cc(=O)oc2cc(OC(C)C(=O)Nc3ccccn3)ccc12` (stereo not shown) [Compound 4, 2-[4-(o-tolyl)-2-oxo-chromen-7-yl]oxy-N-(2-pyridyl)propanamide] was under 20 nM; that for `Cc1ccccc1-c1cc(=O)oc2cc(OC(C)C(=O)N3CCCC3)ccc12` (stereo not shown) [Compound 5, 7-(1-methyl-2-oxo-2-pyrrolidin-1-yl-ethoxy)-4-(o-tolyl)chromen-2-one] was under 20 nM.
The value for `COC(=O)C1CCCN(C(=O)C(C)Oc2ccc3c(-c4ccccc4C)cc(=O)oc3c2)C1` (stereo not shown) [Compound 6, methyl 1-[2-[4-(o-tolyl)-2-oxo-chromen-7-yl]oxypropanoyl]piperidine-3-carboxylate] was under 20 nM; that for `COC(=O)C1CCCN(C(=O)C(C)Oc2ccc3c(-c4ccccc4Cl)cc(=O)oc3c2)C1` (stereo not shown) [Compound 7, methyl 1-[2-[4-(2-chlorophenyl)-2-oxo-chromen-7-yl]oxypropanoyl]piperidine-3-carboxylate] was under 20 nM.
Turning to `Cc1ccccc1-c1cc(=O)oc2cc(OC(C)C(=O)N3CCCC(S(=O)(=O)O)C3)ccc12` (stereo not shown) [Compound 10, 1-[2-[4-(o-tolyl)-2-oxo-chromen-7-yl]oxypropanoyl]piperidine-3-sulfonic acid], the IC50 is under 20 nM.
Compound `CC(Oc1ccc2c(-c3ccccc3Cl)cc(=O)oc2c1)C(=O)N1CCCC(S(=O)(=O)O)C1` (stereo not shown) [Compound 11, 1-[2-[4-(2-chlorophenyl)-2-oxo-chromen-7-yl]oxypropanoyl]piperidine-3-sulfonic acid] gave an IC50 of under 20 nM.
In the case of `CC(Oc1ccc2c(-c3ccccc3Cl)cc(=O)oc2c1)C(=O)N1CCCC1` (stereo not shown) [Compound 13, 4-(2-chlorophenyl)-7-(1-methyl-2-oxo-2-pyrrolidin-1-yl-ethoxy)chromen-2-one], the IC50 is under 20 nM.
The same measure for `CCOC(=O)[C@H]1CCCN(C(=O)C(C)Oc2ccc3c(-c4ccccc4Cl)cc(=O)oc3c2)C1` (stereo partly drawn) [Compound 16, ethyl (3S)-1-[2-[4-(2-chlorophenyl)-2-oxo-chromen-7-yl]oxypropanoyl]piperidine-3-carboxylate]: under 20 nM; for `CCOC(=O)[C@H]1CCCN(C(=O)C(C)Oc2ccc3c(-c4ccccc4C)cc(=O)oc3c2)C1` (stereo partly drawn) [Compound 17, ethyl (3S)-1-[2-[4-(o-tolyl)-2-oxo-chromen-7-yl]oxypropanoyl]piperidine-3-carboxylate]: under 20 nM.
The value for `Cc1ccccc1-c1cc(=O)oc2cc(OC(C)C(=O)Nc3ccc(CCO)cc3)ccc12` (stereo not shown) [Compound 19, N-[4-(2-hydroxyethyl)phenyl]-2-[4-(o-tolyl)-2-oxo-chromen-7-yl]oxy-propanamide] was under 20 nM; that for `CNS(=O)(=O)C1CCCN(C(=O)C(C)Oc2ccc3c(-c4ccccc4Cl)cc(=O)oc3c2)C1` (stereo not shown) [Compound 20, 1-[2-[4-(2-chlorophenyl)-2-oxo-chromen-7-yl]oxypropanoyl]-N-methyl-piperidine-3-sulfonamide] was under 20 nM.
As to `Cc1ccccc1-c1cc(=O)oc2cc(OC(C)C(=O)N3CC[C@H](C(=O)O)C3)ccc12` (stereo partly drawn) [Compound 22, (3S)-1-[2-[4-(o-tolyl)-2-oxo-chromen-7-yl]oxypropanoyl]pyrrolidine-3-carboxylic acid], the IC50 was under 20 nM.
On to `C[C@@H](Oc1ccc2c(-c3ccccc3Cl)cc(=O)oc2c1)C(=O)N1CCC[C@H](C#N)C1` [Compound 28, (3S)-1-[(2R)-2-[4-(2-chlorophenyl)-2-oxo-chromen-7-yl]oxypropanoyl]piperidine-3-carbonitrile], for which the IC50 was under 20 nM.
The compound `C[C@@H](Oc1ccc2c(-c3ccccc3Cl)cc(=O)oc2c1)C(=O)N1CC[C@H](C(=O)O)C1` [Compound 29, (3S)-1-[2-[4-(2-chlorophenyl)-2-oxo-chromen-7-yl]oxypropanoyl]pyrrolidine-3-carboxylic acid] displayed an IC50 of under 20 nM.
`Cc1ccccc1-c1cc(=O)oc2cc(O[C@H](C)C(=O)N3CCCCC3)ccc12` [Compound 30, 7-[(1R)-1-methyl-2-oxo-2-(1-piperidyl)ethoxy]-4-(o-tolyl)chromen-2-one] gave an IC50 of under 20 nM.
For the compound `CC(Oc1ccc2c(-c3ccccc3Cl)cc(=O)oc2c1)C(=O)Nc1ccccn1` (stereo not shown) [Compound 31, 2-[4-(2-chlorophenyl)-2-oxo-chromen-7-yl]oxy-N-(2-pyridyl)propanamide], the IC50 is under 20 nM.
Turning to `Cc1ccccc1-c1cc(=O)oc2cc(O[C@H](C)C(=O)N3CCC[C@H](C#N)C3)ccc12` [Compound 32, (3S)-1-[(2R)-2-[4-(o-tolyl)-2-oxo-chromen-7-yl]oxypropanoyl]piperidine-3-carbonitrile], the concentration for half-maximal inhibition (IC50) is under 20 nM.
The value for `C[C@@H](Oc1ccc2c(-c3ccccc3Cl)cc(=O)oc2c1)C(=O)N1CCCCC1` [Compound 34, 4-(2-chlorophenyl)-7-[(1R)-1-methyl-2-oxo-2-(1-piperidyl)ethoxy]chromen-2-one] was under 20 nM; that for `CC(Oc1ccc2c(-c3ccccc3Cl)cc(=O)oc2c1)C(=O)Nc1ccc(CCO)cc1` (stereo not shown) [Compound 35, 2-[4-(2-chlorophenyl)-2-oxo-chromen-7-yl]oxy-N-[4-(2-hydroxyethyl)phenyl]propanamide] was under 20 nM.
The value for `CC(Oc1ccc2c(-c3ccccc3Cl)cc(=O)oc2c1)C(=O)N1CCCC(c2nn[nH]n2)C1` (stereo not shown) [Compound 39, 4-(2-chlorophenyl)-7-[1-methyl-2-oxo-2-[3-(2H-tetrazol-5-yl)-1-piperidyl]ethoxy]chromen-2-one] was under 20 nM; that for `CCOC(=O)C(C)Oc1ccc2c(-c3ccccc3Cl)cc(=O)oc2c1` (stereo not shown) [Compound 40, ethyl 2-[4-(2-chlorophenyl)-2-oxo-chromen-7-yl]oxypropanoate] was under 20 nM; that for `Cc1ccccc1-c1cc(=O)oc2cc(OC(C)C(=O)N3CCCC(C#N)C3)ccc12` (stereo not shown) [Compound 41, 1-[2-[4-(o-tolyl)-2-oxo-chromen-7-yl]oxypropanoyl]piperidine-3-carbonitrile] was under 20 nM.
The value for `Cc1ccccc1-c1cc(=O)oc2cc(OC(C)C(=O)N3CCCC(C)(C(=O)O)C3)ccc12` (stereo not shown) [Compound 43, 3-methyl-1-[2-[4-(o-tolyl)-2-oxo-chromen-7-yl]oxypropanoyl]piperidine-3-carboxylic acid] was under 20 nM; that for `Cc1ccccc1-c1cc(=O)oc2cc(O[C@H](C)C(=O)N(C)C)ccc12` [Compound 44, (2R)-N,N-dimethyl-2-[4-(o-tolyl)-2-oxo-chromen-7-yl]oxy-propanamide] was under 20 nM; that for `C[C@@H](Oc1ccc2c(-c3ccccc3Cl)cc(=O)oc2c1)C(=O)N(C)C` [Compound 45, (2R)-2-[4-(2-chlorophenyl)-2-oxo-chromen-7-yl]oxy-N,N-dimethyl-propanamide] was under 20 nM.
